The source of these data is paper PMC6133293 (SLAS discovery : advancing life sciences R & D, 2018).

Each structure is given as a SMILES string.

The test has as its target G551D-CFTR (Homo sapiens, UniProt P13569, G551D). Description: short-circuit current in FRT cells, positive control potentiator. The format is cell-based.

Chain of G551D-CFTR (P13569 whole entry G551D): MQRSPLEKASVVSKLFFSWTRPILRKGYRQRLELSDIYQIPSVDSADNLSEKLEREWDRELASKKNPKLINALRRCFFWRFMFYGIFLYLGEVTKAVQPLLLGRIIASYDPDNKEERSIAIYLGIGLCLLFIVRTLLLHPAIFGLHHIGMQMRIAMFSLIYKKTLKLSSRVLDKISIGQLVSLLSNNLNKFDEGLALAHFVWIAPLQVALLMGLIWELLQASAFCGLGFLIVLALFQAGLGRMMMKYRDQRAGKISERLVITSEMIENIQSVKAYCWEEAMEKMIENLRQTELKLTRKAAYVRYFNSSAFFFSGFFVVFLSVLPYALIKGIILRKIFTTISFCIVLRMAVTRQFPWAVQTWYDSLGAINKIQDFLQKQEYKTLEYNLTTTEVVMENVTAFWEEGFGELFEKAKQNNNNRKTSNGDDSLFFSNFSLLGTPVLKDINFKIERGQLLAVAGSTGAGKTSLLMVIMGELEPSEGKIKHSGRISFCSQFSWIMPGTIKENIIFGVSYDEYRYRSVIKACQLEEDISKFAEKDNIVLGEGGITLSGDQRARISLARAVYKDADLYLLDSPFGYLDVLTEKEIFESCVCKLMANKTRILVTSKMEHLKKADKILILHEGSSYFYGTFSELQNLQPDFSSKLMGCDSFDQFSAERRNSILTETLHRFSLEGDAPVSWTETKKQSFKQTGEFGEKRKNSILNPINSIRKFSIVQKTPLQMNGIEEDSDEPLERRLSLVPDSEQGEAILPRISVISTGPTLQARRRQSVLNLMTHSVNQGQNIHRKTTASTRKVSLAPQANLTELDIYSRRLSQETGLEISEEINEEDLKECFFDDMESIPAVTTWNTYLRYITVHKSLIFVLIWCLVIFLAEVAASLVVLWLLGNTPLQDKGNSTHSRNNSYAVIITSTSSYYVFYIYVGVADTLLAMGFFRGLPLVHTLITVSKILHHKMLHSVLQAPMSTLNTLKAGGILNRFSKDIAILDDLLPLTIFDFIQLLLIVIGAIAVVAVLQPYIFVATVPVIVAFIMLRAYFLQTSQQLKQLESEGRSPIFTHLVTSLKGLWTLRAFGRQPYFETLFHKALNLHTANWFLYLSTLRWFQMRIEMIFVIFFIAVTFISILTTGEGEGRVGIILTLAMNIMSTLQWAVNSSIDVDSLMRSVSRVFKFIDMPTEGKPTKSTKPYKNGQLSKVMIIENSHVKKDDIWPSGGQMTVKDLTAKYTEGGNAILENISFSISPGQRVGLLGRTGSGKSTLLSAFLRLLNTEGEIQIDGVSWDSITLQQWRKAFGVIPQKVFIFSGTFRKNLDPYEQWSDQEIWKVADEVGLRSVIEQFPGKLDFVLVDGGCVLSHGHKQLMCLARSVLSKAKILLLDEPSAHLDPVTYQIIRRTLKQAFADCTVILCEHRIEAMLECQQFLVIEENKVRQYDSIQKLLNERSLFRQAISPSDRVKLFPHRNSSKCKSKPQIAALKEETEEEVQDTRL

Consider `CC(C)(C)c1cc(C(C)(C)C)c(NC(=O)c2c[nH]c3ccccc3c2=O)cc1O` [VX-770], for which the “short-circuit current in FRT cells, positive control potentiator” value was “A-01 did not activate G551D-CFTR at high concentration, with VX-770 shown as the positive control”.
